Patent publication US9468624B2, “Small molecule antagonists of bacterial quorum-sensing receptors” (priority 2008, dated 2016)
Like-named read-outs stand apart in the source and are kept apart here.

Key:
CviR [1] = biological target: T1, CviR (Chromobacterium violaceum, UniProt D3W065); assay type: binding; design: made in house; host or cells: E. coli BL21(DE3) pLysS, plasmid pET23b; details: for DNA binding of ligand-loaded CviR to vioA promoter: CviR 100-500 nM
Description: CviR Overexpression and Purification. CviR was overexpressed in BL21(DE3) pLysS by growing an overnight culture in LB supplemented with 100 μg/mL ampicillin and 10 μg/mL chloramphenicol. The culture was diluted 1:50 into fresh LB supplemented with 100 μg/mL ampicillin and 10 μg/mL chloramphenicol and grown shaking at 37° C. to an OD600 of 0.4. Various AHL or antagonist molecules were added to at 50 μM and incubated an additional 30 minutes at 30° C., after which expression was induced by the addition of 100 μM IPTG (isopropyl-β-D-thiogalactopyranoside) for 4 hours at 30° C. Cells were harvested by centrifugation and lysed in 20 mM imidazole pH 8.0, 100 mM NaCl, 0.5 mM EDTA and 5% glycerol via a Micro-fluidizer processor (MicroFluidics). Protein was purified via ion-exchange using a Hitrap Heparin HP column (GE Healthcare). Protein was eluted with a 100 mM to 1 M NaCl gradient. Fractions containing CviR were pooled and diluted in lysis buffer devoid of NaCl, and then further purified by cation exchange chromatography using a Hitrap SP HP column (GE Healthcare). CviR was eluted with a 100 mM to 1 M NaCl gradient.
DNA probes for gel mobility shift analyses were generated by standard polymerase chain reaction using primers with a 5′ 6-FAM (fluorescein) tag (Integrated DNA Technologies). The target probe contained about 100 nucleotides of the vioA promoter. The control probe contained 300 bases of vioB intergenic DNA. 37 ng of each probe was incubated for 20 minutes at room temperature with the indicated amounts of CviR (0, 0.1, 0.2, 0.3, 0.4 and 0.5 μM) and 1 μg/μL poly-dIdC in 1× Gel shift buffer (40 mM Tris HCl pH 8.0, 100 mM KCL, 2 mM EDTA, 2 mM DTT, 10% glycerol, 200 μg/mL BSA). Gel mobility shifts were performed on 6% TGE-polyacrylamide gels and visualized using a Storm 860 Imaging System (Molecular Dynamics).
To further investigate the mechanism underlying antagonism of the CviR receptor, an examination was undertaken of whether the soluble CviR antagonist complexes were incapable of binding DNA, and thus unable to activate transcription. […] The CviR protein was also purified in complex with each of the synthetic antagonist molecules, 4606-4237, CTL, and CL. Performance of DNA gel mobility shift analyses enabled assessment of the binding of each of these purified, loaded protein complexes to the vioA promoter.
The reciprocal experiment tested whether C6-HSL could replace CL bound to CviR.

CviR [2] = biological target: T1, CviR; assay: cell-based; assay type: cell-based; design: made in house; host or cells: E. coli BL21(DE3) pLysS, plasmid pET23b
Description: The vioA-gfp promoter fusion was constructed by amplifying the vioA promoter and cloning this region upstream of gfp in pEVS141 at the SphI and SalI sites. Cells containing the vioA-gfp construct were electroporated with the pET23 carrying cviR and selected on LB medium supplemented with 75 μg/mL ampicillin and 50 μg/mL kanamycin. The E. coli strain containing cviR and the vio:gfp reporter is named ELS1257.
E. coli strains were grown overnight in LB medium with antibiotics at 37° C. and sub-cultured into fresh medium at a 1:100 dilution. Various AHL and antagonists were added at constant concentrations or titrated as stated. The gfp was measured on an Envision plate reader after 5 hours of growth at 37° C. C. violaceum strains were grown aerobically in 1 mL Nutrient Broth plus 1 mM tryptophan at 30° C. […] Cells were collected via centrifugation at 13000 rpm for 15 minutes. Pellets were resuspended in 1 mL of methanol and incubated at 42° C. for 1 hour. Samples were again collected via centrifugation at 13000 rpm for 5 minutes and analyzed for violacein by measuring optical density at 568 nm on a Beckman Coulter DU-800 spectrophotometer. For the dose-response analyses, all assays were performed in triplicate.
However, binding of the longer acyl-tail length AHL molecules disrupts the transcriptional activation ability of CviR.
To determine if 4606-4237 inhibits violacein production specifically by interfering with CviR, 4606-4237 was tested for antagonism of CviR in the recombinant E. coli vioA-gfp assay. For these experiments, C6-HSL was held constant at 500 nM, while 4606-4237 was titrated from 1.3 nM to 100 μM (FIG. 3D). […] Importantly, no C. violaceum components other than CviR are present in the recombinant E. coli assay strain. Thus, any inhibition occurring would be due to a specific interaction between the antagonist molecule 4606-4237 and CviR rather than an interaction of 4606-4237 with some unknown component required for violacein production in C. violaceum.

[3] = system: C. violaceum killing of C. elegans; assay: C. elegans life span assay following C. violaceum infection; assay type: in vivo, Caenorhabditis elegans; details: wild type C. violaceum, CL 20 μM; untreated two days
Description: Life Span Assays. C. elegans lifespan assays were completed with at least 100 wild type N2 worms for each condition. C. elegans eggs were harvested from a large population of gravid adults using a standard bleaching protocol (30 mL 5% bleach, 15 mL N KOH, 55 mL DH2O). Harvested eggs were placed on lawns of fresh E. coli OP50 and allowed to hatch and grow to the young adult (L4) stage before being moved onto lawns of C. violaceum. Worms were scored for survival each day and transferred to new C. violaceum lawns every two days until all worms had expired.
In the presence of the mutant strain, the median C. elegans lifespan is twelve days (FIG. 7A; DMSO control). Exogenous addition of the native autoinducer molecule, C6-HSL restored quorum sensing and complemented the cviI mutant's ability to kill C. elegans (median lifespan=4 days, FIG. 7A).

T1 sequence (D3W065 1-265): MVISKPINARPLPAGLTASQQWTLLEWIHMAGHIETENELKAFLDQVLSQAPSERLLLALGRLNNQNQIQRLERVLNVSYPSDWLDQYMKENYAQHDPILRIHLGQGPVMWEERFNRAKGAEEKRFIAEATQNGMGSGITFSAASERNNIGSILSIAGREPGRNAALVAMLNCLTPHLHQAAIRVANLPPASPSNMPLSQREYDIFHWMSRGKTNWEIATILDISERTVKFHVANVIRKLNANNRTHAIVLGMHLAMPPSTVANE

Row | SMILES | ligand exchange on loaded CviR, effect on DNA binding (CviR [1]; 500 nM loaded CviR, competing ligand 0-10 μM) | DNA binding of ligand-loaded CviR to vioA promoter (CviR [1]) | IC50 (CviR [2]; constant 500 nM C6-HSL, read-out: IC50 for inhibition of vioA-gfp expression) [nM] | C. elegans lifespan [3] | IC50 (CviR [2]) [nM]
1 | O=C(CCCOc1ccc(Cl)cc1)NC1CCOC1=O (stereo not drawn) [CL, chlorolactone] | DNA binding decreased in a dose dependent manner | no ability to bind DNA | 377 | seven | –
2 | O=C(CCCOc1ccc(Cl)cc1)NC1CCSC1=O (stereo not drawn) [CTL, Chloro-thiolactone] | – | no ability to bind DNA | – | – | 1100
